This note sets out measurements from US9201173B2, “Polarizer protective film, polarizer, and liquid crystal display device” (FUJIFILM CORPORATION, priority 2010, dated 2015).

Structures are written as SMILES.

A short description of the data set: Acid dissociation constant by alkali titration. It is filed as physicochemical. As to conditions: mixed solvent of tetrahydrofuran/water=6/4 by volume at 25° C. As to the method: For measurement of the acid dissociation constant in the invention, employed is the alkali titration method described in Experimental Chemistry Course, 2nd Ed., pp. 215-217 (published by Maruzen).
The organic acid A is Tokyo Chemical's 1-benzyl-5-phenylbarbituric acid, and its acid dissociation constant in a mixed solvent of tetrahydrofuran/water=6/4 by volume at 25° C. is 4.0.

In the case of `O=C1NC(=O)N(Cc2ccccc2)C(=O)C1c1ccccc1` (stereo not shown) [organic acid A, 1-benzyl-5-phenylbarbituric acid], the acid dissociation constant is 4.0.
